Consider 24 compounds from US9414596B2, “Metalloenzyme inhibitor compounds” (Viamet Pharmaceuticals, Inc., priority 2012, dated 2016).

Converted amounts (≈) assume the structure as drawn.

Usually MIC stands for the least concentration at which growth counts as inhibited.

This experiment deals with Septoria tritici (ATCC 26517). Briefly: Minimum Inhibitory Concentration (MIC) (Septoria tritici), CLSI-based microdilution. In kind it is cell-based. The conditions noted are these: Zymoseptoria tritici, ATCC26517, 168 h, S. tritici ATCC 26517; seven days at 22° C. in the dark; MIC = 50% reduction in growth, visual; read-out: Septoria MIC Rating. As for the experimental part: B. Minimum Inhibitory Concentration (MIC) (Septoria tritici)
Compounds of the present disclosure were assessed for their ability to inhibit the growth of a common strain of the fungal plant pathogen Septoria tritici (ATCC 26517) using a procedure based on a Clinical and Laboratory Standards Institute (CLSI) microdilution assay protocol for filamentous fungi.
Stock solutions of the test compounds and standards were prepared in DMSO at 6400 μg/mL. Each stock solution was used to prepare a 2-fold dilution series ranging from 16 to 0.016 μg/mL (total of 11 compound concentrations) in RPMI-1640 (Roswell Park Memorial Institute) medium containing 3-(N-morpholino)propanesulfonic acid (MOPS) buffer and 2% DMSO. A 100 μL aliquot of the dilutions was added to columns 1 (16 μg/mL compound) through 11 (0.016 μg/mL compound) of a 96-well microtiter plate. This format was replicated in a second row of the microtiter plate. Thus, each microtiter plate could include 11 concentrations of four test or control compounds replicated twice. A 100 μL aliquot of RPMI-1640/MOPS/2% DMSO medium was added to column 12 (no compound control) of the microtiter plate.
A fresh culture of S. tritici was used to prepare a solution of approximately 5×10^4 colony-forming units per milliliter (cfu/mL) in RPMI/MOPS medium without DMSO. A 100 μL aliquot of this solution was added to all 96 wells in the microtiter plate. […] The assay plates were incubated at 22° C. for seven days in the dark without shaking.
On the technique in general: Dilution methods test growth across graded concentrations, often in twofold steps.
As to `N#Cc1ccc(-c2ccc(C(F)(F)C(O)(Cn3cnnn3)c3ccc(F)cc3F)nc2)cc1` (stereo not drawn) [Example 1, 4-(6-(2-(2,4-Difluorophenyl)-1,1-difluoro-2-hydroxy-3-(1H-tetrazol-1-yl)propyl)pyridin-3-yl)benzonitrile], the MIC was below 0.5 µg/mL.
For the compound `N#Cc1cccc(-c2ccc(C(F)(F)C(O)(Cn3cnnn3)c3ccc(F)cc3F)nc2)c1` (stereo not drawn) [Example 3, 3-(6-(2-(2,4-Difluorophenyl)-1,1-difluoro-2-hydroxy-3-(1H-tetrazol-1-yl)propyl)pyridin-3-yl)benzonitrile], the MIC is 1.5 to 4 µg/mL (≈ 3.3 to 8.8 µM).
Regarding `CC(C)Oc1ccc(-c2ccc(C(F)(F)C(O)(Cn3cnnn3)c3ccc(F)cc3F)nc2)cc1` (stereo not drawn) [Example 4, 2-(2,4-Difluorophenyl)-1,1-difluoro-1-(5-(4-isopropoxyphenyl)pyridin-2-yl)-3-(1H-tetrazol-1-yl)propan-2-ol], the MIC was below 0.5 µg/mL.
As for `OC(Cn1cnnn1)(c1ccc(F)cc1F)C(F)(F)c1ccc(-c2ccc(F)cc2)cn1` (stereo not drawn) [Example 5, 2-(2,4-Difluorophenyl)-1,1-difluoro-1-(5-(4-fluorophenyl)pyridin-2-yl)-3-(1H-tetrazol-1-yl)propan-2-ol], the MIC was below 0.5 µg/mL.
As for `OC(Cn1cnnn1)(c1ccc(F)cc1F)C(F)(F)c1ccc(-c2cccc(OC(F)(F)F)c2)cn1` (stereo not drawn) [Example 6, 2-(2,4-Difluorophenyl)-1,1-difluoro-3-(1H-tetrazol-1-yl)-1-(5-(3-(trifluoromethoxy)phenyl)-pyridin-2-yl)propan-2-ol], the minimal inhibitory concentration (MIC) lay within 1.5 to 4 µg/mL (≈ 2.92 to 7.79 µM).
As for `OC(Cn1cnnn1)(c1ccc(F)cc1F)C(F)(F)c1ccc(-c2ccc(OC(F)(F)F)cc2)cn1` (stereo not drawn) [Example 7, 2-(2,4-Difluorophenyl)-1,1-difluoro-3-(1H-tetrazol-1-yl)-1-(5-(4-(trifluoromethoxy)phenyl)-pyridin-2-yl)propan-2-ol], the MIC is below 0.5 µg/mL.
For `OC(Cn1cnnn1)(c1ccc(F)cc1F)C(F)(F)c1ccc(-c2cccc(Cl)c2)cn1` (stereo not drawn) [Example 8, 1-(5-(3-Chlorophenyl)pyridin-2-yl)-2-(2,4-difluorophenyl)-1,1-difluoro-3-(1H-tetrazol-1-yl)propan-2-ol], the MIC lay within 0.5 to 1.5 µg/mL (≈ 1.08 to 3.23 µM).
With `OC(Cn1cnnn1)(c1ccc(F)cc1F)C(F)(F)c1ccc(-c2ccc(Cl)cc2)cn1` (stereo not drawn) [Example 9, 1-(5-(4-Chlorophenyl)pyridin-2-yl)-2-(2,4-difluorophenyl)-1,1-difluoro-3-(1H-tetrazol-1-yl)propan-2-ol], the minimal inhibitory concentration (MIC) is below 0.5 µg/mL.
Next, `OC(Cn1cnnn1)(c1ccc(F)cc1F)C(F)(F)c1ccc(-c2cc(F)ccc2F)cn1` (stereo not drawn) [Example 10, 2-(2,4-Difluorophenyl)-1-(5-(2,5-difluorophenyl)pyridin-2-yl)-1,1-difluoro-3-(1H-tetrazol-1-yl)propan-2-ol]: below 0.5 µg/mL; `OC(Cn1cnnn1)(c1ccc(F)cc1F)C(F)(F)c1ccc(-c2ccc(OCC(F)(F)F)cc2)cn1` (stereo not drawn) [Example 11, 2-(2,4-Difluorophenyl)-1,1-difluoro-3-(1H-tetrazol-1-yl)-1-(5-(4-(2,2,2-trifluoroethoxy)phenyl)pyridin-2-yl)propan-2-ol]: below 0.5 µg/mL; `OC(Cn1cncn1)(c1ccc(F)cc1F)C(F)(F)c1ccc(-c2ccc(F)cc2)cn1` (stereo not drawn) [Example 16, 2-(2,4-Difluorophenyl)-1,1-difluoro-1-(5-(4-fluorophenyl)pyridin-2-yl)-3-(1H-1,2,4-triazol-1-yl)propan-2-ol]: below 0.5 µg/mL.
Take `OC(Cn1cncn1)(c1ccc(F)cc1F)C(F)(F)c1ccc(-c2ccc(OC(F)(F)F)cc2)cn1` (stereo not drawn) [Example 18, 2-(2,4-Difluorophenyl)-1,1-difluoro-3-(1H-1,2,4-triazol-1-yl)-1-(5-(4-(trifluoromethoxy)phenyl)pyridin-2-yl) propan-2-ol]: the MIC was below 0.5 µg/mL.
Next, `OC(Cn1ncnn1)(c1ccc(F)cc1F)C(F)(F)c1ccc(-c2cccc(F)c2)cn1` (stereo not drawn) [Example 21]: above 4 µg/mL; `OC(Cn1ncnn1)(c1ccc(F)cc1F)C(F)(F)c1ccc(-c2ccc(C(F)(F)F)cc2)cn1` (stereo not drawn) [Example 22]: above 4 µg/mL; `Oc1ccc(-c2ccc(C(F)(F)C(O)(Cn3cnnn3)c3ccc(F)cc3F)nc2)cc1` (stereo not drawn) [Example 23, 4-(6-(2-(2,4-Difluorophenyl)-1,1-difluoro-2-hydroxy-3-(1H-tetrazol-1-yl)propyl)pyridin-3-yl)phenol]: 1.5 to 4 µg/mL (≈ 3.37 to 8.98 µM).
Turning to `CC(C)c1cccc(-c2ccc(C(F)(F)C(O)(Cn3cnnn3)c3ccc(F)cc3F)nc2)c1` (stereo not drawn) [Example 24, 2-(2,4-Difluorophenyl)-1,1-difluoro-1-(5-(3-isopropylphenyl)pyridin-2-yl)-3-(1H-tetrazol-1-yl)propan-2-ol], the MIC lay in the range of 0.5 to 1.5 µg/mL (≈ 1.06 to 3.18 µM).
With `OC(Cn1cnnn1)(c1ccc(F)cc1F)C(F)(F)c1ccc(-c2ccc(F)c(F)c2)cn1` (stereo not drawn) [Example 25, 2-(2,4-Difluorophenyl)-1-(5-(3,4-difluorophenyl)pyridin-2-yl)-1,1-difluoro-3-(1H-tetrazol-1-yl)propan-2-ol], the minimum inhibitory concentration (MIC) was below 0.5 µg/mL.
For the compound `OC(Cn1cnnn1)(c1ccc(F)cc1F)C(F)(F)c1ccc(-c2cccc(OC(F)F)c2)cn1` (stereo not drawn) [Example 26, 1-(5-(3-(Difluoromethoxy)phenyl)pyridin-2-yl)-2-(2,4-difluorophenyl)-1,1-difluoro-3-(1H-tetrazol-1-yl)propan-2-ol], the minimum inhibitory concentration (MIC) was 0.5 to 1.5 µg/mL (≈ 1.01 to 3.03 µM).
`OC(Cn1cnnn1)(c1ccc(F)cc1F)C(F)(F)c1ccc(-c2ccc(SC(F)(F)F)cc2)cn1` (stereo not drawn) [Example 27, 2-(2,4-Difluorophenyl)-1,1-difluoro-3-(1H-tetrazol-1-yl)-1-(5-(4-((trifluoromethyl)thio)phenyl)pyridin-2-yl)propan-2-ol]: the MIC is below 0.5 µg/mL.
The result for `CC(C)(C)Oc1ccc(-c2ccc(C(F)(F)C(O)(Cn3cnnn3)c3ccc(F)cc3F)nc2)cc1` (stereo not drawn) [Example 28, 1-(5-(4-(tert-Butoxy)phenyl)pyridin-2-yl)-2-(2,4-difluorophenyl)-1,1-difluoro-3-(1H-tetrazol-1-yl)propan-2-ol] reads below 0.5 µg/mL; that for `OC(Cn1cnnn1)(c1ccc(F)cc1F)C(F)(F)c1ccc(-c2ccc(Cl)c(F)c2)cn1` (stereo not drawn) [Example 29, 1-(5-(4-Chloro-3-fluorophenyl)pyridin-2-yl)-2-(2,4-difluorophenyl)-1,1-difluoro-3-(1H-tetrazol-1-yl)propan-2-ol], 1.5 to 4 µg/mL (≈ 3.11 to 8.3 µM); that for `Oc1cccc(-c2ccc(C(F)(F)C(O)(Cn3cnnn3)c3ccc(F)cc3F)nc2)c1` (stereo not drawn) [Example 30, 3-(6-(2-(2,4-Difluorophenyl)-1,1-difluoro-2-hydroxy-3-(1H-tetrazol-1-yl)propyl)pyridin-3-yl)phenol], below 0.5 µg/mL.
As to `OC(Cn1cnnn1)(c1ccc(F)cc1F)C(F)(F)c1ccc(-c2cccc(C(F)(F)F)c2)cn1` (stereo not drawn) [Example 31, 2-(2,4-Difluorophenyl)-1,1-difluoro-3-(1H-tetrazol-1-yl)-1-(5-(3-(trifluoromethyl)phenyl)pyridin-2-yl)propan-2-ol], the MIC fell in the range of 0.5 to 1.5 µg/mL (≈ 1.01 to 3.02 µM).
In the case of `O=[N+]([O-])c1ccc(-c2ccc(C(F)(F)C(O)(Cn3cnnn3)c3ccc(F)cc3F)nc2)cc1` (stereo not drawn) [Example 32, 2-(2,4-Difluorophenyl)-1,1-difluoro-1-(5-(4-nitrophenyl)pyridin-2-yl)-3-(1H-tetrazol-1-yl)propan-2-ol], the MIC was in the range of 0.5 to 1.5 µg/mL (≈ 1.05 to 3.16 µM).
